From ChEMBL document CHEMBL4831527, “Structure-Based Design and Discovery of Pyridyl-Bearing Fused Bicyclic HIV-1 Inhibitors: Synthesis, Biological Characterization, and Molecular Modeling Studies” (J Med Chem, 2021)
Calls of active or inactive are those of the source. No cut-off for these calls is given here.

Assays:
[1] = system: Human immunodeficiency virus 1; assay: Antiviral activity against HIV1 3B infected in human MT4 cells assessed as protection against virus-induced cytopathic effect incubated for 5 days by MTT assay; format: functional, organism-based; conditions: Human immunodeficiency virus 1, 3B, MT4, 120 h
[2] = system: Human immunodeficiency virus 1; assay: Antiviral activity against HIV1 RES056 infected in human MT4 cells assessed as protection against virus-induced cytopathic effect incubated for 5 days by MTT assay; format: functional, organism-based; conditions: Human immunodeficiency virus 1, RES056, MT4, 120 h
[3] = Cytotoxicity against mock-infected human MT4 cells assessed as reduction in cell viability measured after 5 days by MTT assay; format: cell-based; conditions: time 5 day
[4] = Selectivity index, ratio of CC50 for mock-infected human MT4 cells to EC50 for HIV1 3B infected in human MT4 cells; format: toxicity, cell-based; conditions: MT4 cells (mock-infected and HIV1 3B infected), read-out: Ratio CC50/EC50
[5] = Selectivity index, ratio of CC50 for mock-infected human MT4 cells to EC50 for HIV1 RES056 infected in human MT4 cells; format: toxicity, cell-based; conditions: MT4 cells (mock-infected and HIV1 RES056 infected), read-out: Ratio CC50/EC50
[6] = system: Human immunodeficiency virus 1; assay: Antiviral activity against HIV1 harboring reverse transcriptase E138K mutant infected in human MT4 cells assessed as protection against virus-induced cytopathic effect incubated for 5 days by MTT assay; format: functional, organism-based; conditions: Human immunodeficiency virus 1, MT4, 120 h
[7] = system: Human immunodeficiency virus 1; assay: Antiviral activity against HIV1 harboring reverse transcriptase K103N mutant infected in human MT4 cells assessed as protection against virus-induced cytopathic effect incubated for 5 days by MTT assay; format: functional, organism-based; conditions: Human immunodeficiency virus 1, MT4, 120 h
[8] = system: Human immunodeficiency virus 1; assay: Antiviral activity against HIV1 harboring reverse transcriptase Y181C mutant infected in human MT4 cells assessed as protection against virus-induced cytopathic effect incubated for 5 days by MTT assay; format: functional, organism-based; conditions: Human immunodeficiency virus 1, MT4, 120 h
[9] = system: Human immunodeficiency virus 1; assay: Antiviral activity against HIV1 harboring reverse transcriptase Y188L mutant infected in human MT4 cells assessed as protection against virus-induced cytopathic effect incubated for 5 days by MTT assay; format: functional, organism-based; conditions: Human immunodeficiency virus 1, MT4, 120 h
[10] = system: Human immunodeficiency virus 1; assay: Antiviral activity against HIV1 harboring reverse transcriptase L100I mutant infected in human MT4 cells assessed as protection against virus-induced cytopathic effect incubated for 5 days by MTT assay; format: functional, organism-based; conditions: Human immunodeficiency virus 1, MT4, 120 h
[11] = system: Human immunodeficiency virus 1; assay: Antiviral activity against HIV1 harboring reverse transcriptase F227L/V106A double mutant infected in human MT4 cells assessed as protection against virus-induced cytopathic effect incubated for 5 days by MTT assay; format: functional, organism-based; conditions: Human immunodeficiency virus 1, MT4, 120 h
[12] = molecular target: Human immunodeficiency virus type 1 reverse transcriptase (Human immunodeficiency virus 1, UniProt Q72547); assay: Inhibition of wild type HIV1 p66/p51 reverse transcriptase using poly(rA) as template, oligo(dT)16 as primer and RNA/DNA as substrate measured after 40 mins by PICOGreen-dye based spectrofluorimetry analysis
[13] = system: Human immunodeficiency virus 2; assay: Antiviral activity against HIV2 ROD infected in human MT4 cells assessed as protection against virus-induced cytopathogenicity after 5 days by MTT assay; format: functional, organism-based; conditions: time 5.0 day
in vitro = conditions: human, liver microsomes
[14] = system: Human immunodeficiency virus 1; assay: Potency index, ratio of EFV EC50 to test compound EC50 for antiviral activity against HIV1 RES056 infected in human MT4 cells; format: functional
[15] = Half life in human liver microsomes at 1 uM in presence of NADPH by LC-MS/MS analysis; format: ADME, Microsome

SMILES | EC50 [1] | EC50 [2] | CC50 at 120 h [3] | selectivity ratio [4] | selectivity ratio [5] | EC50 [6] | EC50 [7] | EC50 [8] | EC50 [9] | EC50 [10] | EC50 [11] | IC50 [12] | Activity [13] | CLint scaled at 1 h, 1 µM (in vitro) | Ratio EC50 [14] | half-life at 1 µM [15]
Cc1cc(C#N)cc(C)c1Oc1nc(Nc2ccc(C#N)cc2)nc2c1ccn2CO | 6.1 nM | 128 nM | 830 nM | 137 | 6 | > 707 nM | 3.7 nM | 31.2 nM | > 707 nM | 20.1 nM | > 707 nM | 40 nM | inactive | – | – | –
Cc1cc(/C=C/C(N)=O)cc(C)c1Oc1nc(Nc2ccc(C#N)cc2)nn2cccc12 | 36.3 nM | 5850 nM | 57600 nM | 1590 | 10 | – | – | – | – | – | – | 53 nM | inactive | – | – | –
C[C@]12CC[C@H]3[C@@H](CCC4=CC(=O)CC[C@@]43C)[C@@H]1CC[C@@H]2O [TESTOSTERONE] | – | – | – | – | – | – | – | – | – | – | – | – | – | 126 mL/min/kg | – | –
Cc1cc(C#N)cc(C)c1Oc1nc(Nc2ccc(C#N)cc2)nc2c1CCCC2 | 10.6 nM | – | – | 298 | – | 19 nM | 7.1 nM | 52.7 nM | 24.5 nM | 12.8 nM | 58.4 nM | 52 nM | inactive | – | – | –
Cc1cc(C#N)cc(C)c1Oc1nc(Nc2ccc(C#N)cc2)nc(N)c1Br [ETRAVIRINE] | 4.8 nM | 473 nM | > 4600 nM | – | – | 15.2 nM | 3.9 nM | 213 nM | 27.2 nM | 7.4 nM | 25.7 nM | – | – | – | – | –
Cc1cc(/C=C/C#N)cc(C)c1Oc1nc(Nc2ccc(C#N)cc2)nn2cccc12 | 12.6 nM | 61.1 nM | 5000 nM | 395 | 81 | > 41300 nM | 4.8 nM | 19.7 nM | > 41300 nM | 7.8 nM | > 41300 nM | 43 nM | inactive | 28.8 mL/min/kg | 2.4 | 43.3 min
Cn1c(Cn2ccc(C(F)(F)F)c(Oc3cc(Cl)cc(C#N)c3)c2=O)n[nH]c1=O [DORAVIRINE] | 13 nM | 15 nM | > 294000 nM | > 21900 | > 20100 | – | – | – | – | – | – | – | – | – | – | –
Cc1cc(C#N)cc(C)c1Oc1nc(Nc2ccc(C#N)nc2)nc2c1CCCC2 | 1070 nM | > 12600 nM | 244000 nM | 228 | < 19 | – | – | – | – | – | – | 50 nM | inactive | – | – | –
Cc1cc(C=O)cc(C)c1Oc1nc(Nc2ccc(C#N)cn2)nc2c1CCCC2 | 234 nM | > 35300 nM | 293000 nM | 1250 | 58 | – | – | – | – | – | – | 58 nM | inactive | – | – | –
Cc1cc(C#N)cc(C)c1Oc1nc(Nc2ccc(C#N)cn2)nc2c1ccn2COCC[Si](C)(C)C | > 93900 nM | > 93900 nM | 93900 nM | < 1 | < 1 | – | – | – | – | – | – | 31000 nM | inactive | – | – | –
Cc1cc(C#N)cc(C)c1Oc1nc(Nc2ccc(CC#N)cc2)nc2c1CCCC2 | 11.7 nM | 1020 nM | 4500 nM | 385 | 4 | > 4520 nM | 9.9 nM | 283 nM | > 4520 nM | 68.5 nM | > 4520 nM | 53 nM | inactive | – | – | –
Cc1cc(C#N)cc(C)c1Oc1nc(Nc2ccc(C#N)nc2)nc2c1ccn2COCC[Si](C)(C)C | 253 nM | > 117000 nM | 117000 nM | 463 | < 1 | – | – | – | – | – | – | 7400 nM | inactive | – | – | –
Cc1cc(C#N)cc(C)c1Oc1nc(Nc2ccc(C#N)cc2)nc2c1ccn2COCC[Si](C)(C)C | 820 nM | > 2960 nM | 3000 nM | 4 | < 1 | – | – | – | – | – | – | 171 nM | inactive | – | – | –
Cc1cc(C=O)cc(C)c1Oc1nc(Nc2ccc(C#N)cc2)nc2c1CCCC2 | 35.1 nM | 1200 nM | 5900 nM | 169 | 5 | 146 nM | 63.7 nM | 748 nM | 663 nM | 492 nM | 2240 nM | 55 nM | inactive | – | – | –
Cc1cc(/C=C/C#N)cc(C)c1Oc1nc(Nc2ccc(C#N)nc2)nc2c1CCCC2 | 7.6 nM | 58.8 nM | 8800 nM | 1160 | 150 | > 8830 nM | 7.7 nM | 34.8 nM | > 8830 nM | 12.8 nM | > 8830 nM | 147 nM | inactive | 47 mL/min/kg | 2.4 | 26.5 min
Cc1cc(C)c(Oc2nc(Nc3ccc(C#N)cc3)nc3c2CCCC3)c(C)c1 | 38.6 nM | 805 nM | 6800 nM | 177 | 8 | 171 nM | 57 nM | 232 nM | 191 nM | 96.9 nM | 524 nM | 241 nM | inactive | – | – | –
O=C(O)Cc1ccccc1Nc1c(Cl)cccc1Cl [DICLOFENAC] | – | – | – | – | – | – | – | – | – | – | – | – | – | 310 mL/min/kg | – | –
Cc1cc(C=O)cc(C)c1Oc1nc(Nc2ccc(C#N)nc2)nc2c1CCCC2 | 35.4 nM | 9210 nM | 20900 nM | 590 | 2 | – | – | – | – | – | – | 43 nM | inactive | – | – | –
O=C1Nc2ccc(Cl)cc2[C@@](C#CC2CC2)(C(F)(F)F)O1 [EFAVIRENZ] | 4.5 nM | 144 nM | > 6300 nM | > 1390 | > 44 | 6 nM | – | – | 244 nM | 51.6 nM | 274 nM | – | – | – | – | –
Cc1cc(C#N)cc(C)c1Oc1nc(Nc2ccc(S(C)(=O)=O)cc2)nc2c1CCCC2 | 56.7 nM | > 279000 nM | > 279000 nM | > 4920 | – | – | – | – | – | – | – | 69 nM | inactive | – | – | –
Cc1cc(C#N)cc(C)c1Oc1nc(Nc2ccc(C#N)nc2)nn2cccc12 | 7 nM | 1220 nM | 69100 nM | 9830 | 57 | > 69100 nM | 11.9 nM | 171 nM | > 69100 nM | 204 nM | > 69100 nM | 14 nM | inactive | – | – | –
Cc1cc(C#N)cc(C)c1Oc1nc(Nc2ccc(C#N)nc2)nc2c1ccn2CO | 46.9 nM | > 138000 nM | ≥ 138000 nM | ≥ 2950 | – | – | – | – | – | – | – | 47 nM | inactive | – | – | –
Cc1cc(C#N)cc(C)c1Oc1nc(Nc2ccc(OC(F)(F)F)cc2)nc2c1CCCC2 | 80.6 nM | > 275000 nM | > 275000 nM | > 3410 | – | – | – | – | – | – | – | 61000 nM | inactive | – | – | –
Cc1cc(/C=C/C#N)cc(C)c1Nc1ccnc(Nc2ccc(C#N)cc2)n1 [RILPIVIRINE] | – | – | – | – | – | – | – | – | – | – | – | – | – | 97.6 mL/min/kg | – | 12.8 min
Cc1cc(/C=C/C#N)cc(C)c1Oc1nc(Nc2ccc(CC#N)cc2)nc2c1CCCC2 | 17.7 nM | 433 nM | 48300 nM | 2730 | 112 | > 25800 nM | 12.9 nM | 140 nM | > 25800 nM | 49 nM | > 25800 nM | 49 nM | inactive | – | – | –
Cc1cc(/C=C/C#N)cc(C)c1Oc1nc(Nc2ccc(C#N)cc2)nc2c1CCCC2 | 14 nM | 68.2 nM | 7200 nM | 513 | 105 | 61.3 nM | 17 nM | 40.9 nM | 77.9 nM | 18 nM | 95.3 nM | 119 nM | inactive | 45.5 mL/min/kg | 2.1 | 27.4 min
